In PMC12534982 (Journal of Experimental & Clinical Cancer Research : CR, 2025):

Key:
SW620 cells [1] = experiment: Lactate assay; assay type: cell-based, human; details: 25 µM, 24 h; in comparison to Brequinar (100 µM)
Experimental: This assessment was conducted utilizing a Lactate Assay Kit-WST (#L256-20; Dojindo Laboratories), in accordance with the manufacturer's protocol. Optical density measurements were recorded at 450 nm using a Victor Multilabel Plate Reader.

[2] = system: human colorectal cancer cell lines; experiment: Cell viability assay (CellTiter-Glo); assay type: cell-based; details: dose-dependent; 48 h
[3] = system: healthy fibroblasts and keratinocytes; experiment: Cell viability / morphology in healthy cells; assay type: cell-based, human; details: 25 µM, 48 h
From the text: (§1) Brightfield images were captured using a Leica DMi8 microscope with a 10X or 20X objective (HC PL FLUOTAR 10X/0.45 or 20X/0.75) equipped with a Leica DFC9000GT camera, and processed with a Leica Application Suite X (LAS X) Life Science Microscope Software (v3.5.5.19976, RRID:SCR_013673).

SW620 cells [4] = experiment: Complex I- and complex II-dependent respiration (permeabilized cells); assay type: cell-based, human; details: 25 µM, 24 h
Experimental: Following treatment, cells were detached using trypsin–EDTA, washed with PBS, and resuspended in MiR05 media (composed of 110 mM sucrose, 60 mM potassium-lactobionate, 0.5 mM EGTA, 3 mM MgCl2·6H2O, 20 mM taurine, 10 mM KH2PO4, 20 mM HEPES adjusted to pH 7.1 with KOH at 37 °C, and 1 g/L BSA) at a concentration of 5 × 10^5 cells/mL. The cells were then transferred into 2 mL Oxygraph chambers for real-time measurement of OCR. Initial permeabilization was achieved using 7 μg of digitonin, followed by the sequential addition of substrates and inhibitors: 5 mM ADP, 2 mM malate, 10 μM cytochrome c, 5 mM pyruvate, 10 mM glutamate, 10 mM succinate, 0.5 μM rotenone, and 2.5 μM antimycin A. Mitochondrial membrane integrity was confirmed through the addition of cytochrome c (10 μM), with observed changes in OCR remaining below 10%. Complex I-mediated respiration was evaluated following the addition of complex I substrates (malate/pyruvate/glutamate), while complex II-mediated respiration was assessed in the presence of the complex II substrate (succinate) and the complex I inhibitor (rotenone). Residual oxygen consumption after the addition of antimycin A was subtracted from all the results to yield mitochondria-specific rates. […] Oxygen consumption rates were expressed as picomoles (pmol) per second per million cells (Mill) and normalized to the mitochondrial copy number in each sample.

colorectal cancer cells [5] = experiment: Annexin V-FITC/PI double staining; assay type: cell-based, human; details: 25 µM
Experimental: Cells were harvested as described in the flow cytometry-based cell cycle analysis section. The supernatant was discarded, and the cells were resuspended in 100 μL of cold Annexin buffer (pH 7.4) composed of 18 mL distilled water, 5.5 mg CaCl2, 164 mg NaCl, and 2 mL of 100 mM HEPES. A 1:1 mixture of Annexin V (#130–097-928; Miltenyi Biotec) and propidium iodide (PI, 1 mg/mL) was added to all tubes and incubated in the dark at room temperature for 20 min. Annexin buffer was added, and the samples were analyzed using a CytoFLEX within 1 h. CytExpert and FlowJo software were utilized for data acquisition and analysis.

DHODH R136C = target: T1, DHODH R136C (Homo sapiens, UniProt Q02127, R135C); experiment: In vitro DHODH enzyme activity assay; assay type: biochemical; details: 1 mM DHO
T1 construct: made in house
Experimental: (§2) The assays to determine the inhibition constants of inhibitors of the recombinant DHODH enzymes are described in [28, 29].
(§3) The IC50 values were determined by fitting the equation V = V max/(1 + (I/IC50)^h) to the assay data using SigmaPlot14 (Systat Software Inc.). In this equation, V represents the measured enzyme activity, while V max indicates the maximum enzyme activity reached. I denotes the inhibitor concentration, and h describes the slope of the fitted curve.

Δ29 DHODH (N-truncated) = target: T2, Δ29 DHODH (N-truncated) (Homo sapiens, UniProt Q02127); experiment: In vitro DHODH enzyme activity assay; assay type: biochemical; details: 1 mM DHO
T2 construct: N-terminal truncated form of human DHODH (Δ29), where the N-terminal transmembrane domain was removed; made in house
Experimental: as §2, §3

[6] = target: T3, recombinant human DHODH (full-length wild-type) (Homo sapiens, UniProt Q02127); experiment: In vitro DHODH enzyme activity assay; assay type: biochemical; details: for IC50: 0.1 mM QD, mean ± SD (n = 4–6); for Ki: assuming pure competitive inhibition
T3 construct: The generation of recombinant enzymes (full-length wild-type); made in house
Experimental: as §2, §3

[7] = system: tumor-derived intestinal organoids; experiment: Organoid viability (CellTiter-Glo 3D); assay type: cell-based, human; details: 96 h
[8] = system: cell lines from other cancer types (osteosarcoma, breast, lung); experiment: Cell morphology studies (brightfield); assay type: cell-based, human; details: 25 µM, 48 h
From the text: as §1

colorectal cancer cells [9] = experiment: Live-cell imaging; assay type: cell-based, human; details: 25 µM, 24 h time-lapse
Experimental: Following staining, cells were treated with either DMSO or NK-A 17E-233I (25 µM) and subjected to time-lapse imaging for another 24 h, with an acquisition time of 1 h between frames. Cells were maintained at 37 °C with 5% CO2 and 95% humidity using Okolab chambers and monitored with a Leica DMi8 microscope equipped with a Leica DFC9000GT camera. Images were captured in brightfield and at 405 nm to visualize the nuclei using a 20X objective (HC PL FLUOTAR 20x/0.75). Images were processed using Leica Application Suite X (LAS X) Life Science Microscope Software (v3.5.5.19976, RRID:SCR_013673).

colorectal cancer cells [10] = experiment: Intracellular ATP levels (CellTiter-Glo); assay type: cell-based, human; details: 25 µM
Experimental: Luminescence readings were recorded with a Victor Multilabel Plate Reader (PerkinElmer Life Sciences, Massachusetts, USA).

T3 sequence (Q02127 whole entry): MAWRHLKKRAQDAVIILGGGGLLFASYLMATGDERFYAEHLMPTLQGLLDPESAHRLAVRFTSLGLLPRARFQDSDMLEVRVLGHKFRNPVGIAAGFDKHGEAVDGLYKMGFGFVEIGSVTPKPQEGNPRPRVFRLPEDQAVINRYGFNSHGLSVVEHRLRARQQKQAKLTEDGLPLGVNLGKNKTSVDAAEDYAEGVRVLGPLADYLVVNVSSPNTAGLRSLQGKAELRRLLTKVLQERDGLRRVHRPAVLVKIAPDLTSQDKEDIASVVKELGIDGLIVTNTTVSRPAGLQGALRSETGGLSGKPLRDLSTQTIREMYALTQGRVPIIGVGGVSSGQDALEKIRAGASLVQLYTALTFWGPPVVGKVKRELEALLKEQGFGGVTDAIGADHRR
T1 sequence (Q02127 whole entry R135C): as the sequence (Q02127 whole entry) above, with R135C counted along it
T2 sequence (Q02127 29-395, stated change not applied): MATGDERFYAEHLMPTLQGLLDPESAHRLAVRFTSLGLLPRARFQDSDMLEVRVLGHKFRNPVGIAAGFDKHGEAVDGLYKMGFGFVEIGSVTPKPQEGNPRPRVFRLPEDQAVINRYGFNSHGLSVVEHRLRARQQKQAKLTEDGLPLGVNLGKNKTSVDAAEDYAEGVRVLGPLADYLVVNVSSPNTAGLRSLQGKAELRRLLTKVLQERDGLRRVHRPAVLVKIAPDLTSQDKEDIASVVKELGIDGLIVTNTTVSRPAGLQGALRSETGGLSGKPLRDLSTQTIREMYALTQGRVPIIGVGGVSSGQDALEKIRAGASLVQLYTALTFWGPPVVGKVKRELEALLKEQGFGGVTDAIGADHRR

IC50 (DHODH R136C; mean ± SD (n = 3)): 48.6 ± 30.8 µM | average of the fitted slopes (DHODH R136C; ± SD): 0.6 ± 0.2 | IC50 (Δ29 DHODH (N-truncated); mean ± SD (n = 3)): 99.1 ± 47.8 µM | average of the fitted slopes (Δ29 DHODH (N-truncated); ± SD): 1 ± 0.8 | mode of inhibition with respect to DHO [6]: competitive inhibitor | IC50 ([6]; 0.1 mM DHO): 28.9 ± 14.5 µM | IC50 ([6]; 1 mM DHO): 98.3 ± 42.6 µM | fold increase in the IC50 value with increasing concentrations of DHO ([6]; 1 mM vs 0.1 mM DHO): 3.4 fold | Ki ([6]; derived from the IC50 at 0.1 mM DHO): 3.9 µM | Ki ([6]; derived from the IC50 at 1 mM DHO): 1.5 µM
SMILES: COc1cc(C)c(Oc2cc(C)cc(O)c2O)c(O)c1 [NK-A 17E-233I]
concentration of lactate (SW620 cells [1]): significantly reduced | viability [2]: reduced the viability | cytotoxic effects in healthy cells [3]: no similar effects were observed | OCR supported by complex I and II substrates (SW620 cells [4]): did not alter | late-apoptotic cells (Annexin V-FITC) (colorectal cancer cells [5]; 48 h): significantly increased | apoptosis with pan-caspase inhibitor Z-VAD-FMK (colorectal cancer cells [5]; Z-VAD-FMK 10 µM, 24 h): abolished its activity | sensitivity of tumor-derived organoids [7]: demonstrated sensitivity to NK-A 17E-233I in a dose-dependent manner | cytotoxic effects [8]: cytotoxic effects | progression through mitosis (G2/M) (colorectal cancer cells [9]): failed to progress through mitosis | ATP production / proliferation with non-physiological uridine (colorectal cancer cells [10]; 200 µM uridine, various time points): did not impact the production of ATP or cancer cell proliferation | levels of ATP (colorectal cancer cells [10]; up to 24 h): reduced
